Patent publication US8119148B2, “Suspension comprising oxcarbazepine” (Novartis Pharmaceuticals Corporation, priority 1999, dated 2012)
In brackets after ≈: the same amount, converted by molar mass.

Assay: Solubility in water
Assay type: physicochemical
Conditions: pH 5.8, water, at 25° C. and pH of 5.8 to 6.0
Procedure: A wide range of container sizes may be employed. Container size may be conveniently categorised as Low-Volume, e.g., 100 ml or less and High-Volume, e.g., above 100 ml and typically 250 ml.

solubility: 3200 to 4200 µg/mL (≈ 12.7 to 16.6 mM)
Compound: NC(=O)N1c2ccccc2CC(=O)c2ccccc21 [oxcarbazepine, 10,11-Dihydro-10-oxo-5H-di-benz[b,f]azepine-5-carboxamide]
